Reference: patent US20230348424A1, “HETEROCYCLIC COMPOUNDS AND METHODS OF USE” (Schrödinger, Inc., priority 2022, published 2023)

Molecular target: SOS1:KRAS (G12C) interaction (Homo sapiens (Human), UniProt Q07889)
Assay: SOS1 KRas(G12C) FRET Assay
Assay type: binding
Settings: 0.5 nM His10-SOS1 (res. 564-1049), 2.5 nM GST-KRAS G12C (res. 1-169), 2 hrs at RT
Procedure, shortened: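 GST-KRAS G12C (res. 1-169) at 2.5 nM and His10-SOS1 (res. 564-1049) at 0.5 nM, final, in PBS with 0.1% BSA, 5 mM MgCl2, 100 mM KF, 5 mM DTT and 0.5% DMSO. After 2 h at RT, FRET read at 665/615 nm and normalized to DMSO and no-SOS1 controls. IC50 by non-linear regression.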

Chain of SOS1:KRAS (G12C) interaction (Q07889 564-1049, stated change not applied): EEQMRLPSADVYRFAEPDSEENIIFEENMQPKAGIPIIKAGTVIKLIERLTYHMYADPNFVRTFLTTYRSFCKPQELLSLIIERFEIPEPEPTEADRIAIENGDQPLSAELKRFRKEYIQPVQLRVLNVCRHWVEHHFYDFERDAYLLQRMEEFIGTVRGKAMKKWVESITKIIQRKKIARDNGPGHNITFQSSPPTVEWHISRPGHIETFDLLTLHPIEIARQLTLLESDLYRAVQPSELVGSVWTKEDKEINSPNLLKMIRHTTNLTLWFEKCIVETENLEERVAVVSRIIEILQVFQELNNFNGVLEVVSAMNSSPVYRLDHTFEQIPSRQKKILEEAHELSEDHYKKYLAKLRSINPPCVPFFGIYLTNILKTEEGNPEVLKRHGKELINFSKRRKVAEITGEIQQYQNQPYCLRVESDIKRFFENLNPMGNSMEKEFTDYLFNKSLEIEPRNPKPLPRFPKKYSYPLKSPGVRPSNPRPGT

SMILES | IC50 [nM]
C[C@@H](NC(=O)c1cn(C23CC(C2)C3)c(=O)cc1N[C@@H]1C[C@@H]2CN(C)C[C@@H]2C1)c1cccc(C(F)F)c1F [Example 216, 1-(bicyclo[1.1.1]pentan-1-yl)-N-((R)-1-(3-(difluoromethyl)-2-fluorophenyl)ethyl)-4-(((3aR,5r,6aS)-2-methyloctahydrocyclopenta[c]pyrrol-5-yl)amino)-6-oxo-1,6-dihydropyridine-3-carboxamide] | 19.1
C[C@@H](NC(=O)c1cn(C2(C(F)F)CC2)c(=O)cc1N[C@H]1CCN(C)C2(CC2)C1)c1cccc(C(F)F)c1F (single isomer, unassigned) [Example 311] | 9.7
C[C@@H](NC(=O)c1cn(C2CC(F)(F)C2)c(=O)cc1N[C@H]1[C@@H]2CC[C@H]1CN(C)C2)c1cccc(C(F)F)c1F (single isomer, unassigned) [Example 258] | 76.3
C[C@@H](NC(=O)c1cn(C2(C(F)F)CC2)c(=O)cc1N[C@@H]1CCCn2cncc21)c1cccc(C(F)F)c1F (single isomer, unassigned) [Example 184] | 55.8
Cc1c([C@@H](C)NC(=O)c2cn(C3CCOCC3)c(=O)cc2N[C@@H]2CCCN(C)CC2)cccc1C(F)(F)F (single isomer, unassigned) [Example 34] | 22.9
C[C@H](NC(=O)c1cn(C2(C(F)F)CC2)c(=O)cc1N[C@H]1[C@@H]2CN(C)C[C@@H]21)c1cccc(C(F)(F)c2ccncc2)c1F [Example 175, N-((S)-1-(3-(difluoro(pyridin-4-yl)methyl)-2-fluorophenyl)ethyl)-1-(1-(difluoromethyl)cyclopropyl)-4-(((1R,5S,6s)-3-methyl-3-azabicyclo[3.1.0]hexan-6-yl)amino)-6-oxo-1,6-dihydropyridine-3-carboxamide] | 13
C[C@@H](NC(=O)c1cn(C2CC(F)(F)C2)c(=O)cc1N[C@@H]1[C@@H]2CC[C@H]1CN(C)C2)c1cccc(C(F)F)c1F (single isomer, unassigned) [Example 259] | 10.4
COc1ccc(C(C)NC(=O)c2cn(C3(C(F)F)CC3)c(=O)cc2NC2CCN(C)CC2)cc1C(F)(F)F (stereo not shown) [Example 173, 1-(1-(difluoromethyl)cyclopropyl)-N-(1-(4-methoxy-3-(trifluoromethyl)phenyl)ethyl)-4-((1-methylpiperidin-4-yl)amino)-6-oxo-1,6-dihydropyridine-3-carboxamide] | 1180
C[C@@H](NC(=O)c1cn(C2(C(F)F)CC2)c(=O)cc1N[C@H]1CCN2CCC[C@H]2C1)c1cccc(C(F)F)c1F (single isomer, unassigned) [Example 305] | 23.3
C[C@@H](NC(=O)c1cn([C@@]2(C(F)(F)F)CCOC2)c(=O)cc1NC1CCN(C)CC1)c1cccc(C(F)F)c1F [Example 232, N-((R)-1-(3-(difluoromethyl)-2-fluorophenyl)ethyl)-4-((1-methylpiperidin-4-yl)amino)-6-oxo-1-((S)-3-(trifluoromethyl)tetrahydrofuran-3-yl)-1,6-dihydropyridine-3-carboxamide] | 91.9
Cc1c([C@@H](C)NC(=O)c2cn(C3CCOCC3)c(=O)cc2NC2CNC2)cccc1C(F)(F)F [Example 43, (R)-4-(azetidin-3-ylamino)-N-(1-(2-methyl-3-(trifluoromethyl)phenyl)ethyl)-6-oxo-1-(tetrahydro-2H-pyran-4-yl)-1,6-dihydropyridine-3-carboxamide] | 75.7
CC(=O)N1CC[C@](C)(n2cc(C(=O)N[C@H](C)c3cccc(C(F)F)c3F)c(NC3CCN(C)CC3)cc2=O)C1 (single isomer, unassigned) [Example 265] | 27.8
C[C@@H](NC(=O)c1cn([C@@]2(C(F)(F)F)CCOC2)c(=O)cc1N[C@H]1[C@@H]2CN(C)C[C@@H]21)c1cccc(C(F)F)c1F (single isomer, unassigned) [Example 234] | 9.2
C[C@@H]1[C@@H](n2cc(C(=O)N[C@H](C)c3cccc(C(F)(F)F)c3F)c(N[C@H]3[C@@H]4CN(C)C[C@@H]43)cc2=O)C1(F)F (single isomer, unassigned) [Example 197] | 31.7
C[C@@H](NC(=O)c1cn([C@H]2CCOC(C)(C)C2)c(=O)cc1N[C@H]1[C@@H]2CN(C)C[C@@H]21)c1cccc(C(F)F)c1F [Example 310, N-((R)-1-(3-(difluoromethyl)-2-fluorophenyl)ethyl)-1-((S)-2,2-dimethyltetrahydro-2H-pyran-4-yl)-4-(((1R,5S,6s)-3-methyl-3-azabicyclo[3.1.0]hexan-6-yl)amino)-6-oxo-1,6-dihydropyridine-3-carboxamide] | 37.2
C[C@@H](NC(=O)c1cn(C23CC(C2)C3)c(=O)cc1N[C@H]1[C@@H]2CN(C)C[C@@H]21)c1cccc(OC(F)F)c1Cl [Example 180, 1-(bicyclo[1.1.1]pentan-1-yl)-N-((R)-1-(2-chloro-3-(difluoromethoxy)phenyl)ethyl)-4-(((1R,5S,6s)-3-methyl-3-azabicyclo[3.1.0]hexan-6-yl)amino)-6-oxo-1,6-dihydropyridine-3-carboxamide] | 113

SMILES | IC50 [nM]
C[C@@H](NC(=O)c1cn(C2(C(F)F)CC2)c(=O)cc1N[C@@H]1CCN2CCC[C@H]2C1)c1cccc(C(F)F)c1F (single isomer, unassigned) [Example 303] | 18.2
C[C@@H](NC(=O)c1cn(C23CC(C2)C3)c(=O)cc1N[C@@H]1[C@@H]2C[C@H]1CN(C)C2)c1cccc(C(F)F)c1F [Example 208, 1-(bicyclo[1.1.1]pentan-1-yl)-N-((R)-1-(3-(difluoromethyl)-2-fluorophenyl)ethyl)-4-(((1R,5S,6s)-3-methyl-3-azabicyclo[3.1.1]heptan-6-yl)amino)-6-oxo-1,6-dihydropyridine-3-carboxamide] | 13
C[C@@H](NC(=O)c1cn([C@@H]2CCC2(F)F)c(=O)cc1N[C@H]1[C@@H]2CN(C)C[C@@H]21)c1cccc(C(F)(F)F)c1 (single isomer, unassigned) [Example 256] | 13.9
Cc1c([C@@H](C)NC(=O)c2cn(C3CCOCC3)c(=O)cc2N[C@@H]2CCCCN(C)C2)cccc1C(F)(F)F [Example 36, N-((R)-1-(2-methyl-3-(trifluoromethyl)phenyl)ethyl)-4-(((R)-1-methylazepan-3-yl)amino)-6-oxo-1-(tetrahydro-2H-pyran-4-yl)-1,6-dihydropyridine-3-carboxamide] | 30.8
Cc1c([C@@H](C)NC(=O)c2cn(C3CCOCC3)c(=O)cc2N[C@H]2CCN(C)C3(CC3)C2)cccc1C(F)(F)F (single isomer, unassigned) [Example 39] | 43.7
C[C@@H](NC(=O)c1cn(C23CC(C2)C3)c(=O)cc1N[C@H]1[C@@H]2CN(C)C[C@@H]21)c1cccc(C(F)(F)F)c1 [Example 160, 1-(bicyclo[1.1.1]pentan-1-yl)-4-(((1R,5S,6s)-3-methyl-3-azabicyclo[3.1.0]hexan-6-yl)amino)-6-oxo-N-((R)-1-(3-(trifluoromethyl)phenyl)ethyl)-1,6-dihydropyridine-3-carboxamide] | 21.4
C[C@@H](NC(=O)c1cn(C2(C(F)F)CC2)c(=O)cc1NCC1(F)CN(C)C1)c1cccc(C(F)F)c1F [Example 185, (R)-N-(1-(3-(difluoromethyl)-2-fluorophenyl)ethyl)-1-(1-(difluoromethyl)cyclopropyl)-4-(((3-fluoro-1-methylazetidin-3-yl)methyl)amino)-6-oxo-1,6-dihydropyridine-3-carboxamide] | 30.7
CC(=O)N1CC[C@@](C)(n2cc(C(=O)N[C@H](C)c3cccc(C(F)F)c3F)c(NC3CCN(C)CC3)cc2=O)C1 (single isomer, unassigned) [Example 266] | 1.4
C[C@@H](NC(=O)c1cn(C2(C(F)F)CC2)c(=O)cc1NC1CCN(C)CC1)c1cccc2c(F)coc12 [Example 54, (R)-1-(1-(difluoromethyl)cyclopropyl)-N-(1-(3-fluorobenzofuran-7-yl)ethyl)-4-((1-methylpiperidin-4-yl)amino)-6-oxo-1,6-dihydropyridine-3-carboxamide] | 26.6
Cc1c([C@@H](C)NC(=O)c2cn(C3CCOCC3)c(=O)cc2N[C@H]2CCCN(C)CC2)cccc1C(F)(F)F (single isomer, unassigned) [Example 33] | 18
C[C@@H](NC(=O)c1cn(C23CC(C2)C3)c(=O)cc1N[C@H]1[C@@H]2CNC[C@@H]21)c1cccc(C(F)F)c1F [Example 89, 4-(((1R,5S,6s)-3-azabicyclo[3.1.0]hexan-6-yl)amino)-1-(bicyclo[1. 1.1]pentan-1-yl)-N-((R)-1-(3-(difluoromethyl)-2-fluorophenyl)ethyl)-6-oxo-1,6-dihydropyridine-3-carboxamide] | 22.9
C[C@@H](NC(=O)c1cn(C2(C(F)F)CC2)c(=O)cc1NC1CCN(C)C2(CC2)C1)c1cccc(C(F)F)c1F (stereo partly drawn) [Example 240, N-((R)-1-(3-(difluoromethyl)-2-fluorophenyl)ethyl)-1-(1-(difluoromethyl)cyclopropyl)-4-((4-methyl-4-azaspiro[2.5]octan-7-yl)amino)-6-oxo-1,6-dihydropyridine-3-carboxamide] | 13.5
[2H]C([2H])([2H])N1CCC(Nc2cc(=O)n(C3(C(F)F)CC3)cc2C(=O)N[C@H](C)c2cccc(C(F)F)c2F)CC1 [Example 286, (R)-N-(1-(3-(difluoromethyl)-2-fluorophenyl)ethyl)-1-(1-(difluoromethyl)cyclopropyl)-4-((1-(methyl-d3)piperidin-4-yl)amino)-6-oxo-1,6-dihydropyridine-3-carboxamide] | 15.5
C[C@@H](NC(=O)c1cn([C@@H]2CC23CC3)c(=O)cc1N[C@H]1[C@@H]2CN(C)C[C@@H]21)c1cccc(C(C)(F)F)c1F (single isomer, unassigned) [Example 254] | 13
Cc1c([C@@H](C)NC(=O)c2cn(C3CCOCC3)c(=O)cc2N[C@@H]2CCN(C)C3(CC3)C2)cccc1C(F)(F)F (single isomer, unassigned) [Example 40] | 11.8
